Several values for one entry are separate records, joined by “and”; a condition that tells them apart may be missing. Equal values may be shown once. ± gives the expanded uncertainty stated by the source.
Experiment: xn = mol fraction of the nth substance listed
Conditions: Gas, Spherical resonator

[Ar] [argon] + O=C=O
speed of sound (274.99 K, 4022.9 kPa, x2 = 0.501): 263.92 ± 0.45 m/s and 263.91 ± 0.45 m/s
speed of sound (274.99 K, 4023.2 kPa, x2 = 0.501): 263.86 ± 0.45 m/s
speed of sound (274.99 K, 6072.9 kPa, x2 = 0.501): 257.99 ± 0.44 m/s and 257.96 ± 0.44 m/s
speed of sound (274.99 K, 6073.3 kPa, x2 = 0.501): 258.01 ± 0.44 m/s
speed of sound (275 K, 2006.3 kPa, x2 = 0.501): 270.61 ± 0.46 m/s and 270.59 ± 0.46 m/s
speed of sound (275 K, 2006.4 kPa, x2 = 0.501): 270.44 ± 0.46 m/s
speed of sound (275 K, 8215.3 kPa, x2 = 0.501): 254.18 ± 0.43 m/s and 254.17 ± 0.43 m/s
speed of sound (275 K, 8216.3 kPa, x2 = 0.501): 253.76 ± 0.43 m/s
speed of sound (276.09 K, 501.14 kPa, x2 = 0.7498): 264.91 ± 0.45 m/s
speed of sound (276.09 K, 1998.9 kPa, x2 = 0.7498): 255.17 ± 0.49 m/s and 255.16 ± 0.44 m/s
speed of sound (276.09 K, 1999 kPa, x2 = 0.7498): 255.07 ± 0.43 m/s
speed of sound (276.09 K, 4003.2 kPa, x2 = 0.7498): 240.29 ± 0.41 m/s
speed of sound (276.09 K, 4003.3 kPa, x2 = 0.7498): 240.28 ± 0.41 m/s
speed of sound (276.09 K, 4003.6 kPa, x2 = 0.7498): 240.29 ± 0.41 m/s
speed of sound (276.09 K, 4995.2 kPa, x2 = 0.7498): 231.83 ± 0.41 m/s and 231.82 ± 0.41 m/s
speed of sound (276.09 K, 4995.7 kPa, x2 = 0.7498): 232.3 ± 0.41 m/s
speed of sound (276.09 K, 5295.4 kPa, x2 = 0.7498): 229.02 ± 0.41 m/s and 229.01 ± 0.41 m/s
speed of sound (276.09 K, 5296 kPa, x2 = 0.7498): 229.56 ± 0.41 m/s
speed of sound (276.09 K, 5399.3 kPa, x2 = 0.7498): 228 ± 0.41 m/s
speed of sound (276.09 K, 5399.8 kPa, x2 = 0.7498): 228.57 ± 0.41 m/s
speed of sound (276.09 K, 5502.4 kPa, x2 = 0.7498): 226.98 ± 0.41 m/s
speed of sound (276.09 K, 5503 kPa, x2 = 0.7498): 227.57 ± 0.4 m/s
speed of sound (290.01 K, 485.29 kPa, x2 = 0.7498): 271.44 ± 0.46 m/s
speed of sound (290.01 K, 1978.9 kPa, x2 = 0.7498): 263.38 ± 0.45 m/s and 263.41 ± 0.45 m/s
speed of sound (290.01 K, 1979 kPa, x2 = 0.7498): 263.3 ± 0.45 m/s
speed of sound (290.01 K, 4023.1 kPa, x2 = 0.7498): 251.71 ± 0.43 m/s and 251.65 ± 0.43 m/s
speed of sound (290.01 K, 4023.4 kPa, x2 = 0.7498): 251.64 ± 0.43 m/s
speed of sound (290.01 K, 6011.9 kPa, x2 = 0.7498): 239.66 ± 0.41 m/s
speed of sound (290.01 K, 6012.1 kPa, x2 = 0.7498): 239.67 ± 0.41 m/s
speed of sound (290.01 K, 6012.7 kPa, x2 = 0.7498): 240.25 ± 0.41 m/s
speed of sound (290.01 K, 8057 kPa, x2 = 0.7498): 227.35 ± 0.4 m/s
speed of sound (290.01 K, 8057.4 kPa, x2 = 0.7498): 227.74 ± 0.4 m/s
speed of sound (290.02 K, 8057.1 kPa, x2 = 0.7498): 227.32 ± 0.4 m/s
speed of sound (299.85 K, 8170.1 kPa, x2 = 0.501): 275.03 ± 0.47 m/s
speed of sound (299.85 K, 8170.2 kPa, x2 = 0.501): 275.04 ± 0.47 m/s
speed of sound (299.85 K, 8170.7 kPa, x2 = 0.501): 275.13 ± 0.47 m/s
speed of sound (299.94 K, 1986.8 kPa, x2 = 0.501): 283.88 ± 0.48 m/s and 283.89 ± 0.48 m/s
speed of sound (299.94 K, 1987 kPa, x2 = 0.501): 283.79 ± 0.48 m/s
speed of sound (299.94 K, 4020.8 kPa, x2 = 0.501): 279.77 ± 0.47 m/s
speed of sound (299.95 K, 494.36 kPa, x2 = 0.501): 287.27 ± 0.48 m/s
speed of sound (299.95 K, 4020.5 kPa, x2 = 0.501): 279.84 ± 0.47 m/s and 279.82 ± 0.47 m/s
speed of sound (299.95 K, 6007.5 kPa, x2 = 0.501): 276.82 ± 0.47 m/s
speed of sound (299.95 K, 6007.9 kPa, x2 = 0.501): 276.82 ± 0.47 m/s
speed of sound (299.95 K, 7657.9 kPa, x2 = 0.501): 275.37 ± 0.47 m/s
speed of sound (299.95 K, 7658 kPa, x2 = 0.501): 275.38 ± 0.47 m/s
speed of sound (299.96 K, 7658.9 kPa, x2 = 0.501): 275.44 ± 0.47 m/s
speed of sound (310 K, 5999.6 kPa, x2 = 0.7498): 258 ± 0.44 m/s
speed of sound (310.01 K, 488.28 kPa, x2 = 0.7498): 280.3 ± 0.47 m/s
speed of sound (310.01 K, 1980.9 kPa, x2 = 0.7498): 274.11 ± 0.46 m/s and 274.12 ± 0.46 m/s
speed of sound (310.01 K, 1981 kPa, x2 = 0.7498): 274.01 ± 0.46 m/s
speed of sound (310.01 K, 4023.9 kPa, x2 = 0.7498): 265.68 ± 0.45 m/s and 265.67 ± 0.45 m/s
speed of sound (310.01 K, 4024.2 kPa, x2 = 0.7498): 265.61 ± 0.45 m/s
speed of sound (310.01 K, 5999.7 kPa, x2 = 0.7498): 257.99 ± 0.44 m/s
speed of sound (310.01 K, 6000.2 kPa, x2 = 0.7498): 258.01 ± 0.44 m/s
speed of sound (310.01 K, 8062.5 kPa, x2 = 0.7498): 251.41 ± 0.43 m/s
speed of sound (310.01 K, 8062.7 kPa, x2 = 0.7498): 251.51 ± 0.43 m/s
speed of sound (310.01 K, 8063.3 kPa, x2 = 0.7498): 251.52 ± 0.43 m/s
